In patent US7803801B2, “Aminopyridine compounds having Syk inhibitory activity” (Japan Tobacco, Inc., priority 2005, dated 2010):
Counter-ions that a name gives are not always drawn. Like-named read-outs stand apart in the source and are kept apart here.

Tests used:
[1] = molecular target: GST-Syk Full Protein (human) (Homo sapiens, UniProt P43405); experiment: Syk kinase inhibition test (HTRF method); format: biochemical
Outline: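 Human GST-Syk full-length (6.4 nM) phosphorylated biotin-EDPDYEWPSA-NH2 (250 nM) with 100 μM ATP in HEPES pH 7.0/MgCl2 buffer, 2% DMSO, 30 min at room temperature. EDTA stop, then HTRF detection (streptavidin-XL665, Eu anti-phosphotyrosine) after 1 h; 665/620 ratio read.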

[2] = tested on: cultured human mast cells; experiment: Degranulation inhibition test using cultured human mast cells (IgE cross-linking, β-Hexosaminidase release); format: cell-based; details: Mast cell, cultured human mast cells, read-out: human degranulation ave. IC50
Outline: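 CD34+ cord-blood cells cultured ≥8 weeks with SCF/IL-6/IL-3; FcεRI primed 5 days with rhIL-4 (1 ng/mL) and hIgE (0.5 μg/mL). Compound (0.1% DMSO) preincubated 10 min at 37 °C, then anti-IgE (final 10 μg/mL) 30 min; released β-hexosaminidase read at 405 nm versus total lysate, IC50 (M).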

[3] = Tables 2-x, thiophene compounds B, read-out: sykHTRK ave IC50
[4] = Tables 2-x, thiophene compounds B
[5] = HTRF, 100 μM ATP, 30 min room temperature, average, read-out: sykHTRF ave IC50
[6] = anti-hIgE stimulation, β-Hexosaminidase index, average
[7] = Tables 1-x, compounds A, read-out: sykHTRF ave IC50

Row | IC50 [1, 5] | IC50 [2, 6] | IC50 [1, 7] | IC50 ([2]; Tables 1-x, compounds A) | SMILES | other results
1 |  |  | < 100 nM | 100 to 1000 nM | Cc1ccnc(Nc2cccc(-c3cnc(N(C)[C@H]4CC[C@@H](CC(=O)O)CC4)s3)n2)c1 [Compound A-611, [cis-4-(N-methyl-N-{5-[6-(4-methylpyridin-2-ylamino)pyridin-2-yl]thiazol-2-yl}amino)cyclohexyl]acetic acid] | 
2 |  |  | < 100 nM | > 1000 nM | O=C(O)CC1CCN(c2ncc(-c3cccc(Nc4ccccn4)n3)s2)CC1 [Compound A-573, (1-{5-[6-(pyridin-2-ylamino)pyridin-2-yl]thiazol-2-yl}piperidin-4-yl)acetic acid dihydrochloride] | 
3 |  |  | < 100 nM | 100 to 1000 nM | Cc1ccnc(Nc2cccc(-c3cnc(N4CCC(NC(=O)CO)CC4)s3)n2)c1 [Compound A-482, 2-hydroxy-N-(1-{5-[6-(4-methylpyridin-2-ylamino)pyridin-2-yl]thiazol-2-yl}piperidin-4-yl)acetamide] | 
4 |  |  | < 100 nM | 100 to 1000 nM | Cc1ccnc(Nc2cccc(-c3cnc(N(C)CCNC(=O)CO)s3)n2)c1 [Compound A-509, 2-hydroxy-N-[2-(N′-methyl-{5-[6-(4-methylpyridin-2-ylamino)pyridin-2-yl]thiazol-2-yl}amino)ethyl]acetamide] | 
5 |  |  | < 100 nM | < 100 nM | OCCN(CCO)c1ncc(-c2cccc(Nc3cc(Cl)ccn3)n2)s1 [Compound A-545, 2-[N-{5-[6-(4-chloropyridin-2-ylamino)pyridin-2-yl]thiazol-2-yl}-N-(2-hydroxyethyl)amino]ethanol] | 
6 |  |  | < 100 nM | > 1000 nM | CC(=O)N1CCC(N(c2ncc(-c3cccc(Nc4cc(C)ccn4)n3)s2)C(C)C)CC1 [Compound A-515, 1-[4-(N-isopropyl-N-{5-[6-(4-methylpyridin-2-ylamino)pyridin-2-yl]thiazol-2-yl}amino)piperidin-1-yl]ethanone] | 
7 | < 100 nM | 100 to 1000 nM |  |  | Cc1ccnc(Nc2cccc(-c3cnc([C@H]4CC[C@H](C(=O)N5CCC(O)C5)CC4)s3)n2)c1 (stereo partly drawn) [Compound A-282, (3-hydroxypyrrolidin-1-yl)-(trans-4-{5-[6-(4-methylpyridin-2-ylamino)pyridin-2-yl]thiazol-2-yl}cyclohexyl)methanone] | 
8 |  |  | < 100 nM | 100 to 1000 nM | CC(=O)N1CCN(c2ncc(-c3cccc(Nc4cc(Cl)ccn4)n3)s2)CC1 [Compound A-443, 1-(4-{5-[6-(4-chloropyridin-2-ylamino)pyridin-2-yl]thiazol-2-yl}piperazin-1-yl)ethanone] | 
9 | 100 to 1000 nM | 100 to 1000 nM |  |  | Cc1ccnc(Nc2cccc(-c3cnc(CNC(=O)CO)s3)n2)c1 [Compound A-201] | 
10 | 100 to 1000 nM | > 1000 nM |  |  | Cc1ccnc(Nc2cccc(-c3cnc(C(=O)NC(C)CO)s3)n2)c1 (centres unmarked) [Compound A-54] | 
11 | < 100 nM | < 100 nM |  |  | CNC(=O)N1CCN(c2ncc(-c3cccc(Nc4cc(C)ccn4)n3)s2)CC1 [Compound A-427, N-methyl-4-{5-[6-(4-methylpyridin-2-ylamino)pyridin-2-yl]thiazol-2-yl}piperazine-1-carboxamide] | 
12 | 100 to 1000 nM | > 1000 nM |  |  | CC(=O)N[C@@H](Cc1ccc(OCCO)cc1)c1ncc(-c2cccc(Nc3cc(C)ccn3)n2)s1 [Compound A-140] | 
13 | < 100 nM | 100 to 1000 nM |  |  | Cc1ccnc(Nc2cccc(-c3cnc([C@H]4CC[C@H](C(=O)NN5CCC(O)CC5)CC4)s3)n2)c1 [Compound A-298, N-(4-hydroxypiperidin-1-yl)-trans-4-{5-[6-(4-methylpyridin-2-ylamino)pyridin-2-yl]thiazol-2-yl}cyclohexanecarboxamide] | 
14 | < 100 nM | > 1000 nM |  |  | Cc1ccnc(Nc2cccc(-c3cnc([C@H]4CC[C@H](C(=O)N5CCNC(=O)C5)CC4)s3)n2)c1 [Compound A-283, 4-(trans-4-{5-[6-(4-methylpyridin-2-ylamino)pyridin-2-yl]thiazol-2-yl}cyclohexanecarbonyl)piperazin-2-one] | 
15 | 100 to 1000 nM | 100 to 1000 nM |  |  | COC(=O)N[C@@H](C)c1ncc(-c2cccc(Nc3cc(C)ccn3)n2)s1 [Compound A-57] | 
16 | 100 to 1000 nM | > 1000 nM |  |  | COc1ccc(NCc2ncc(-c3cccc(Nc4cc(C)ccn4)n3)s2)cc1 [Compound A-214] | 

The remaining lines, values behind:

Row | SMILES | IC50 [1, 5] | IC50 [2, 6] | IC50 [1, 7] | IC50 ([2]; Tables 1-x, compounds A) | other results
17 | Cc1ccnc(Nc2cccc(-c3ccc(C(O)C(C)C)s3)n2)c1 (centres unmarked) [Compound B-45] |  |  |  |  | IC50 [1, 3]: 100 to 1000 nM; IC50 [2, 4]: > 1000 nM
18 | CC(=O)N[C@@H](C)c1nc(C)c(-c2cccc(Nc3cc(C)ccn3)n2)s1 [Compound A-105] | 100 to 1000 nM | > 1000 nM |  |  | 
19 | Cc1ccnc(Nc2cccc(-c3cnc(N(C)C(C)(C)c4ccc(C(=O)O)cc4)s3)n2)c1 [Compound A-616, 4-[1-methyl-1-(N-methyl-N-{5-[6-(4-methylpyridin-2-ylamino)pyridin-2-yl]thiazol-2-yl}amino)ethyl]benzoic acid dihydrochloride] |  |  | < 100 nM | 100 to 1000 nM | 
20 | Cc1ccnc(Nc2cccc(-c3cnc(C(=O)C(C)C)s3)n2)c1 [Compound A-83] | 100 to 1000 nM | > 1000 nM |  |  | 
21 | Cc1ccnc(Nc2cccc(-c3cnc([C@H]4CC[C@H](C(=O)O)CC4)s3)n2)c1 [Compound A-7, trans-4-{5-[6-(4-methylpyridin-2-ylamino)pyridin-2-yl]thiazol-2-yl}cyclohexanecarboxylic acid] | < 100 nM | > 1000 nM |  |  | 
22 | Cc1ccnc(Nc2cccc(-c3cnc(N(C)CC(N)=O)s3)n2)c1 [Compound A-556, 2-(N-methyl-N-{5-[6-(4-methylpyridin-2-ylamino)pyridin-2-yl]thiazol-2-yl}amino)acetamide] |  |  | < 100 nM | < 100 nM | 
23 | O=C1CC[C@@H](c2ncc(-c3cccc(Nc4cc(Cl)ccn4)n3)s2)N1 [Compound A-323, (S)-5-{5-[6-(4-chloropyridin-2-ylamino)pyridin-2-yl]thiazol-2-yl}pyrrolidin-2-one] | < 100 nM | < 100 nM |  |  | 
24 | Cc1ccnc(Nc2cccc(-c3cnc(CC(C)(C)N)s3)n2)c1 [Compound A-333] | 100 to 1000 nM | 100 to 1000 nM |  |  | 
25 | CNC(=O)c1ccc(-c2cccc(Nc3cc(C)ccn3)n2)s1 [Compound B-11, N-methyl-5-[6-(4-methylpyridin-2-ylamino)pyridin-2-yl]thiophene-2-carboxamide] |  |  |  |  | IC50 [1, 3]: < 100 nM; IC50 [2, 4]: 100 to 1000 nM
26 | Cc1ccnc(Nc2cccc(-c3cnc(N(CC(=O)N(C)C)[C@H]4CC[C@H](C(=O)O)CC4)s3)n2)c1 [Compound A-602] |  |  | 100 to 1000 nM | > 1000 nM | 
27 | COc1ccc(C[C@H](NC(C)=O)c2ncc(-c3cccc(Nc4cc(C)ccn4)n3)s2)cc1 [Compound A-136] | 100 to 1000 nM | > 1000 nM |  |  | 
28 | CC(=O)Nc1ccc(-c2cccc(Nc3cc(C)ccn3)n2)s1 [Compound B-10, N-{5-[6-(4-methylpyridin-2-ylamino)pyridin-2-yl]thiophen-2-yl}acetamide] |  |  |  |  | IC50 [1, 3]: < 100 nM; IC50 [2, 4]: 100 to 1000 nM
29 | Cc1ccnc(Nc2cccc(-c3cnc(C4CCC(CC(=O)O)CC4)s3)n2)c1 (centres unmarked) [Compound A-595, (4-{5-[6-(4-methylpyridin-2-ylamino)pyridin-2-yl]thiazol-2-yl}cyclohexyl)acetic acid hydrochloride] |  |  | < 100 nM | 100 to 1000 nM | 
30 | Cc1ccnc(Nc2cccc(-c3cnc(CN4C(=O)CC(C)(C)CC4=O)s3)n2)c1 [Compound A-385] |  |  | 100 to 1000 nM | 100 to 1000 nM | 
31 | Cc1ccnc(Nc2cccc(-c3cnc(COC(=O)N4CCOCC4)s3)n2)c1 [Compound A-346] | 100 to 1000 nM | 100 to 1000 nM |  |  | 
32 | Cc1ccnc(Nc2cccc(-c3cnc(CN4CCNC(=O)C4)s3)n2)c1 [Compound A-416, 4-{5-[6-(4-methylpyridin-2-ylamino)pyridin-2-yl]thiazol-2-ylmethyl}piperazin-2-one] |  |  | < 100 nM | < 100 nM | 
33 | Cc1ccnc(Nc2cccc(-c3cnc(N(C)Cc4ccc(C(=O)O)s4)s3)n2)c1 [Compound A-603, 5-[(N-methyl-N-{5-[6-(4-methylpyridin-2-ylamino)pyridin-2-yl]thiazol-2-yl}amino)methyl]thiophene-2-carboxylic acid] |  |  | < 100 nM | > 1000 nM | 
34 | CC(=O)N[C@@H](C)c1nc(CO)c(-c2cccc(Nc3cc(C)ccn3)n2)s1 [Compound A-108] | > 1000 nM | > 1000 nM |  |  | 
35 | Cc1ccnc(Nc2cccc(-c3cnc([C@H]4CC[C@H](C(=O)N5CCOCC5)CC4)s3)n2)c1 [Compound A-275] | 100 to 1000 nM | 100 to 1000 nM |  |  | 
36 | Cc1ccnc(Nc2cccc(-c3cnc(N(C)C4CCC(C(N)=O)CC4)s3)n2)c1 (centres unmarked) [Compound A-446, 4-(N-methyl-N-{5-[6-(4-methylpyridin-2-ylamino)pyridin-2-yl]thiazol-2-yl}amino)cyclohexanecarboxamide] |  |  | < 100 nM | 100 to 1000 nM | 
37 | Cc1ccnc(Nc2cccc(-c3cnc(CN4C(=O)CNCC4=O)s3)n2)c1 [Compound A-415] |  |  | 100 to 1000 nM | 100 to 1000 nM | 
38 | Cc1ccnc(Nc2cccc(-c3ccc(C(=O)NCCO)s3)n2)c1 [Compound B-24] |  |  |  |  | IC50 [1, 3]: 100 to 1000 nM; IC50 [2, 4]: 100 to 1000 nM
39 | Cc1ccnc(Nc2cccc(-c3sc([C@H](C)N)nc3C)n2)c1 [Compound A-104] | 100 to 1000 nM | > 1000 nM |  |  | 
40 | CC(=O)c1csc(-c2cccc(Nc3cc(C)ccn3)n2)c1 [Compound B-68] |  |  |  |  | IC50 [1, 3]: 100 to 1000 nM; IC50 [2, 4]: > 1000 nM
